Tests used:
[1] = test system: immortalized human breast epithelial cells; conditions: cited from earlier work
[2] = test system: MMR activity; conditions: in vitro assays; cited from earlier work
[3] = at high concentrations; cited from earlier work
[4] = test system: human HEK293 cells; test: Toxicity in HEK293 cells; assay type: cell-based; conditions: 250 µM, 293 cells
[5] = rat-liver microsomal preparations; cited from earlier work
[6] = test system: Arabidopsis thaliana; test: New phenotypes in offspring of chemically treated Arabidopsis plants; assay type: in vivo
Procedure: Next, 50 seeds were plated in two 150mm dishes containing 2mM DMA, 250 µM EMS or no drug. Seeds were grown for 10 days and then 10 plants from each plate were transferred to soil. All plants appeared to be similar in color and height. Plants were grown at room temperature with daily cycles of 18 hr light and 6 hr dark. After 45 days seeds are harvested from siliques and stored in a desiccator at 4°C for 72 hours. Seeds are then sterilized and 100 seeds from each plant is sown directly into water-saturated soil and grown at room temperature with daily cycles of 18 hr light and 6 hr dark. […] These 7 altered plants were light green in color and appeared to grow slower. […] DMA-exposed plants produced offspring that were yellow in appearance in contrast to dark green, which is always found in wild-type plants. In addition, the yellow plants were also shorter. After 30 days, most wild-type plants produced flowers and siliques, while the 7 mutants just began flowering. After 45 days, control plants were harvested while mutant plants were harvested 10 to 15 days later.

[7] = test system: H36pCAR-OF cell line; test: H36pCAR-OF screening assay (MMR-sensitive β-galactosidase reporter); assay type: cell-based, murine
[8] = test system: Arabidopsis thaliana; test: Toxicity curve of DMA and EMS on Arabidopsis seeds (root and shoot formation); assay type: in vivo
Procedure: Briefly, AT seeds were sterilized with straight commercial bleach and 100 seeds were plated in 100mm Murashige and Skoog (MS) phytagar (Life Technology) plates with increasing amounts of DMA (ranging from 100µm to 50mM). A similar amount of seeds were plated on MS phytagar only or in MS phytagar with increasing amounts of EMS (100µM to 50mM), a mutagen commonly used to mutate AT seeds (McCallum, C.M.et al. (2000) Nat. Biotechnol.18:455-457). Plates were grown in a temperature-controlled, fluorescent-lighted humidifier (Percival Growth Chamber) for 10 days. After 10 days, seeds were counted to determine toxicity levels for each compound. […] Plantlets that were identical to untreated seeds were scored healthy. Seeds with stunted root or shoot formation were scored intermediate (inter). Non-germinated seeds were scored dead. Table 2: Toxicity curve of DMA and EMS on Arabidopsis (per […])

[9] = test system: Pichia yeast containing a pGUS-OF reporter system; test: Pichia yeast pGUS-OF reporter assay for MMR blockade; assay type: cell-based; conditions: 300 µM, 48 hours
Procedure: Briefly, the GUS-OF and GUS-IF gene, which contains a polyA repeat at the N-terminus of the protein was subcloned from the pCR=IF-GUS and pCR-OF-GUS plasmids into the EcoRI site of the pGP vector, which is a consitutively expressed yeast vector containing a zeocin resistance gene as selectable marker. pGP-GUS-IF and pGP-GUS-OF vectors were electroporated into competent Pichia cells using standard methods known by those skilled in the art. Cells were plated on YPD agar (10g/L yeast extract; 20 g/L peptone; 2% glucose; 1.5% bactoagar) plates containing 100 µg/ml zeocin. Recombinant yeast are then analyzed for GUS expression/function by replica plating on YPD agar plates containing 100 µg/ml zeocin plus 1 mg/ml X-glu (5-bromo-4-chloro-3-indoyl-beta-D-glucuronide sodium salt) and grown at 30°C for 16 hours. […] None of the yeast containing the GUS-OF turned blue in the presence of the X-glu substrate under normal growth conditions.
After incubation, yeast were plated on YPD-ZEO-X-GLU plates and grown at 30°C for 16 hours.

[10] = test system: human HEK293 cells; test: Microsatellite instability of endogenous BAT26 marker in 293 cells; assay type: cell-based; conditions: 250 µM DMA
Procedure: Briefly, […] were grown in control medium or 250 µM DMA, a concentration that is found to be non-toxic, for 14 to 17 days. Cells are then harvested and genomic DNA isolated using the salting out method (Nicolaides, N.C. et al. (1991) Mol. Cell. Biol. 11 :6166-6176.).
Various amounts of test DNAs from HCT116 (a human colon epithelial cell line) and 293 were first used to determine the sensitivity of our microsatellite test. The BAT26 alleles are known to be heterogeneous between these two cell lines and the products migrate at different molecular weights (Nicolaides personal observation). DNAs were diluted by limiting dilution to determine the level of sensitivity of the assay. DNAs were PCR amplified using the BAT26F: 5'-[…]-3' (SEQ ID NO:43) and the BAT26R: 5'-[…]-3' (SEQ ID NO:44) primers in buffers as described (Nicolaides, N.C. et al. (1995) Genomics 30:195-206). Briefly 1 pg to 100 ngs of DNA were amplified using the following conditions: 94°C for 30 sec, 58°C for 30 sec, 72°C for 30 sec for 30 cycles. […]
To measure for microsatellite stability in 293 cells grown with or without DMA, 0.1 ngs of DNA from DMA-treated or control 293 cells were amplified using the reaction conditions above. […] Fifty bacterial colonies were analyzed for BAT26 structure by directly adding an aliquot of live bacteria to the PCR mix. […]

[11] = test system: MMR defective cell lines; conditions: cited from earlier work
[12] = concentration 0.5 (mM), 10 days
[13] = concentration 1.0 (mM), 10 days
[14] = concentration 2.5 (mM), 10 days
[15] = concentration 5.0 (mM), 10 days
[16] = concentration 12.5 (mM), 10 days
[17] = Arabidopsis thaliana, in vivo, 10 days, 0.1 mM
[18] = Arabidopsis thaliana, in vivo, 10 days, 0.5 mM
[19] = Arabidopsis thaliana, in vivo, 10 days, 1 mM
[20] = Arabidopsis thaliana, in vivo, 10 days, 2.5 mM
[21] = Arabidopsis thaliana, in vivo, 10 days, 5 mM
[22] = Arabidopsis thaliana, in vivo, 10 days, 10 mM
[23] = Arabidopsis thaliana, in vivo, 10 days, 12.5 mM
[24] = Arabidopsis thaliana, in vivo, 10 days, 25 mM
[25] = Arabidopsis thaliana, in vivo, 10 days, 50 mM

Compound: Cc1c2ccccc2c(C)c2c1ccc1ccccc12 [7,12-dimethylbenz[a]anthracene]
- effect on MMR activity [1]: MMR activity might have been blocked

Compound: Nc1ncnc2c1ncn2[C@@H]1O[C@H](COP(=O)(O)OP(=O)(O)NP(=O)(O)O)[C@@H](O)[C@H]1O [AMP-PNP]
- effect on MMR activity [2]: block the MMR activity

Compound: Nc1ncnc2c1ncn2[C@@H]1O[C@H](COP(=O)(O)OP(=O)(O)OP(O)(O)=S)[C@@H](O)[C@H]1O [ATP[gamma]S]
- effect on MMR activity [2]: block the MMR activity

Compound: Cc1c2ccccc2c(C)c2ccccc12 [DMA, 9,10-dimethylanthracene]
- mutagenicity [3]: acts as a potent weak mutagen
- toxicity [4]: non-toxic
- metabolites formed [5]: converted to 9-Hydroxymethyl-10-methylanthracene (9-OHMeMA) and 9,10-dihydroxymethyl-anthracene (9,10-DiOHMeA)
- phenotypically distinct plants ([6]; offspring at day 10 of plants grown from seeds plated in 2mM DMA): 7 out of 118
- MI and/or shifting of the polynucleotide tract in the pCAR-OF reporter (β-galactosidase positive cells) [7]: shifting the pCAR-OF reporter plasmid
- Dead ([8]; concentration 0.1 (mM), 10 days, non-germinated seeds scored dead): 0 per 100 seeds
- Inter ([8]; concentration 0.1 (mM), 10 days, stunted root or shoot formation scored intermediate): 0 per 100 seeds
- Healthy ([8]; concentration 0.1 (no unit in head; mM), MS phytagar, 10 days, identical to untreated seeds): 94 per 100 seeds
- Dead [8, 12]: 0 per 100 seeds
- Inter [8, 12]: 0 per 100 seeds
- Healthy ([8]; concentration 0.5 (mM), MS phytagar, 10 days): 99 per 100 seeds
- Dead [8, 13]: 0 per 100 seeds
- Inter [8, 13]: 0 per 100 seeds
- Healthy ([8]; concentration 1.0 (mM), MS phytagar, 10 days): 99 per 100 seeds
- Dead [8, 14]: 0 per 100 seeds
- Inter [8, 14]: 20 per 100 seeds
- Healthy ([8]; concentration 2.5 (mM), MS phytagar, 10 days): 80 per 100 seeds
- Dead [8, 15]: 0 per 100 seeds
- Inter [8, 15]: 15 per 100 seeds
- Healthy ([8]; concentration 5.0 (mM), MS phytagar, 10 days): 85 per 100 seeds
- Dead ([8]; concentration 10 (mM), 10 days): 0 per 100 seeds
- Inter ([8]; concentration 10 (mM), 10 days): 32 per 100 seeds
- Healthy ([8]; concentration 10 (mM), MS phytagar, 10 days): 65 per 100 seeds
- Dead [8, 16]: 0 per 100 seeds
- Inter [8, 16]: 85 per 100 seeds
- Healthy ([8]; concentration 12.5 (mM), MS phytagar, 10 days): 0 per 100 seeds
- Dead ([8]; concentration 25 (mM), 10 days): 0 per 100 seeds
- Inter ([8]; concentration 25 (mM), 10 days): 100 per 100 seeds
- Healthy ([8]; concentration 25 (mM), MS phytagar, 10 days): 0 per 100 seeds
- Dead ([8]; concentration 50 (mM), 10 days): 100 per 100 seeds
- Inter ([8]; concentration 50 (mM), 10 days): 0 per 100 seeds
- Healthy ([8]; concentration 50 (mM), MS phytagar, 10 days): 0 per 100 seeds
- concentration at which toxicity occurs ([8]; continuous culture, Arabidopsis seeds): 10 mM
- blue subclones (GUS activity) on YPD-ZEO-X-GLU plates [9]: a subset of yeast expressing GUS-OF contain blue subclones
- BAT26 alleles (microsatellite instability) ([10]; 14 to 17 days, PCR and 12% PAGE): showed the presence of an altered allele
- BAT26 polyA repeat length by sequence analysis ([10]; five clones sequenced, control homozygous 26nt polyA): multiple alleles ranging from the wild-type with 26 polyA repeat to shorter alleles (24 polyA repeat) and larger alleles (28 polyA repeat)

Compound: CCOS(C)(=O)=O [EMS, ethyl methanesulfonate]
- phenotypically distinct plants ([6]; 150 offspring at day 10 of plants grown from seeds plated in 250 µM EMS): no phenotypic difference was observed
- MI and/or shifting of the polynucleotide tract in the pCAR-OF reporter (β-galactosidase positive cells) [7]: did not result in MI
- concentration at which toxicity occurs ([8]; Arabidopsis thaliana, in vivo, 10 days): 250 µm
- Healthy [8, 17]: 100 per 100 cells
- Inter [8, 17]: 0 per 100 cells
- Healthy [8, 18]: 45 per 100 cells
- Inter [8, 18]: 54 per 100 cells
- Healthy [8, 19]: 25 per 100 cells
- Inter [8, 19]: 75 per 100 cells
- Healthy [8, 20]: 0 per 100 cells
- Inter [8, 20]: 0 per 100 cells
- Healthy [8, 21]: 0 per 100 cells
- Inter [8, 21]: 0 per 100 cells
- Healthy [8, 22]: 0 per 100 cells
- Inter [8, 22]: 0 per 100 cells
- Healthy [8, 23]: 0 per 100 cells
- Inter [8, 23]: 0 per 100 cells
- Healthy [8, 24]: 0 per 100 cells
- Inter [8, 24]: 0 per 100 cells
- Healthy [8, 25]: 0 per 100 cells
- Inter [8, 25]: 0 per 100 cells
- blue subclones (GUS activity) on YPD-ZEO-X-GLU plates [9]: none are seen

Compound: COc1ccc2nc3cc(Cl)ccc3c(NCCCNCCCl)c2c1 [ICR191]
- mutation rates in MMR defective cell lines [11]: produce enhanced mutation rates in already MMR defective cell lines

Compound: c1ccc2c(c1)cc1ccc3cccc4ccc2c1c34 [benzo [a]pyrene]
- effect on MMR activity [1]: MMR activity might have been blocked

From EP1351565B1, “CHEMICAL INHIBITORS OF MISMATCH REPAIR” (Morphotek, Inc., priority 2001, dated 2002)
